The text below walks through data of PMC3984256, “A PCNA-Derived Cell Permeable Peptide Selectively Inhibits Neuroblastoma Cell Growth” (PLoS ONE, 2014).

Molecules are shown by their SMILES. Where a SMILES comes first, the peptide text is derived from it. [ ]: non-standard residue; d: D form.

Experiment [1] relates to PCNA and POLD3 co-localization in SK-N-AS NB cells. Put plainly: PCNA/POLD3 co-localization, immunofluorescence. The conditions noted are these: synchronized, 30 µM peptide 6 h after mimosine release. It counts as cell-based, human. As to the method:
Cells were seeded at 1×10^5/ml onto a chamber slide and were allowed to attach overnight. To analyze the interaction of PCNA with FEN1, LIGI, or Pol ä, we first synchronize cells at the G1/S boundary. The synchronization is achieved by starving cells in medium containing 0.25% FBS for 24 h. Cells were further cultured in the complete medium containing 400 µM of mimosine for 24 h. To release cells into S phase, cells were washed and incubated in mimosine-free medium containing 30 µM R9-caPep or R9-srbPep for 6 h. We pre-determined that the majority of cells were in the S-phase 6 h after mimosine was removed (data not shown). Cells were fixed in ice-cold methanol:acetone (50%:50%) for 10 min or in 4% paraformaldehyde for 20 min at room temperature. Cells were incubated with a goat polyclonal anti-PCNA antibody (Santa Cruz) and a mouse monoclonal anti-FEN1 antibody (Santa Cruz), a mouse anti-POLD3 antibody (Sigma, St. Louis, MO), or a mouse anti-LIGI antibody (Abcam, Cambridge, MA) for 1 h at room temperature. After being washed with PBS, cells were incubated with Alexa Fluor 488 conjugated anti-mouse IgG and Alexa Fluor 555 conjugated anti-goat IgG antibodies (Invitrogen, Grand Island, NY) for 1 h. Cells were mounted in Vectashield with DAPI (Vector Labs, Burlingame, CA) and visualized by a confocal microscope.

Experiment [2] has as its system SV40 T-antigen-dependent DNA replication, nuclear extracts from SK-N-BE(2)c cells. Put plainly: SV40 T-antigen-dependent DNA replication assay in vitro. The class given is biochemical. The conditions noted are these: nuclear extracts incubated with peptide 20 min; 32P dCTP incorporation, normalized to PBS, triplicates. As to the method:
The assay was performed essentially as described, except that nuclear extracts from SK-N-BE(2)c cells were used in the assay.
Figure 3 Inhibition of DNA replication and induction of S-phase arrest and apoptosis by R9-caPep. a) SK-N-BE(2)c cells were pulsed in 10 µM of BrdU for 30 min after being pre-treated with R9-caPep or R9-srbPep for 7.5 h. The relative abundances of BrdU-positive cells in triplicates were averaged and graphed plus/minus standard deviations. b) Nuclear extracts from SK-N-BE(2)c cells were incubated with the indicated concentrations of R9-caPep (grey bars) or R9-srbPep (black bars) for 20 min. SV40 T-antigen was then added to the nuclear extracts along with premixed reaction buffer containing ^32P dCTP. […] The polymerized radioactivity was measured by a scintillation counter. The T-antigen-dependent incorporation of ^32P dCTP was calculated by subtracting T-antigen-independent radioactivity from the total radioactivity and was normalized to the T-antigen-dependent radioactivity in PBS-treated samples. Triplicates of normalized T-antigen-dependent radioactivity for each treatment condition were averaged and graphed plus/minus standard deviations. c) SK-N-BE(2)c and non-malignant 7SM0032 cells were fixed and stained with propidium iodide (PI) after being treated with the indicated concentrations of R9-caPeptide for 48 h. […] Cells were fixed and analyzed by a TUNEL assay. […]

Turning to `CC[C@H](C)[C@H](NC(=O)CNC(=O)[C@H](CC(C)C)NC(=O)[C@H](CS)NC(=O)[C@H](CS)NC(=O)[C@@H](CCCNC(=N)N)NC(=O)[C@@H](CCCNC(=N)N)NC(=O)[C@@H](CCCNC(=N)N)NC(=O)[C@@H](CCCNC(=N)N)NC(=O)[C@@H](CCCNC(=N)N)NC(=O)[C@@H](CCCNC(=N)N)NC(=O)[C@@H](CCCNC(=N)N)NC(=O)[C@@H](CCCNC(=N)N)NC(=O)[C@H](N)CCCNC(=N)N)C(=O)N1CCC[C@H]1C(=O)N[C@@H](CCC(=O)O)C(=O)N[C@@H](CCC(N)=O)C(=O)N[C@@H](CCC(=O)O)C(=O)N[C@@H](Cc1ccc(O)cc1)C(=O)O` [R9-caPep] (H-[dR][dR][dR][dR][dR][dR][dR][dR][dR]CCLGIPEQEY-OH; N-terminus and C-terminus assumed), the “recruitment of POLD3 to PCNA” value in experiment [1] was “did not seem to affect the recruitment of POLD3 to PCNA”. The “SV40 T-antigen-dependent DNA replication” value in experiment [2] is recorded as “inhibited SV40 T-antigen-dependent DNA replication in vitro”.
